Assay results reported in patent US20240199542A1, “SUBSTITUTED PYRROLIDIN-2-ONES, SALTS THEREOF AND THEIR USE AS HERBICIDALLY ACTIVE SUBSTANCES” (Bayer Aktiengesellschaft, priority 2021, published 2024).

Legend:
Type in all cases: in vivo
[1] = tested on: Alopecurus myosuroides (ALOMY); experiment: Herbicidal pre-emergence action; conditions: 1280 g/ha, graded after ca. 3 weeks
How it was run: (§1)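 Sown seeds in sandy loam received the formulated compounds on the covering soil at application rates up to 1280 g/ha, applied in 600 l water/ha with 0.5% additive. Damage was graded visually after about 3 weeks relative to untreated plants.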

Avena fatua (AVEFA) [2] = experiment: Herbicidal pre-emergence action; conditions: 1280 g/ha, graded after ca. 3 weeks
How it was run: as §1

[3] = tested on: Cyperus esculentus (CYPES); experiment: Herbicidal pre-emergence action; conditions: 1280 g/ha, graded after ca. 3 weeks
How it was run: as §1

[4] = tested on: Echinochloa crus-galli (ECHCG); experiment: Herbicidal pre-emergence action; conditions: 1280 g/ha, graded after ca. 3 weeks
How it was run: as §1

[5] = tested on: Lolium multiflorum (LOLMU); experiment: Herbicidal pre-emergence action; conditions: 1280 g/ha, graded after ca. 3 weeks
How it was run: as §1

[6] = tested on: Polygonum convolvulus (POLCO); experiment: Herbicidal pre-emergence action; conditions: 1280 g/ha, graded after ca. 3 weeks
How it was run: as §1

Setaria viridis (SETVI) = experiment: Herbicidal pre-emergence action; conditions: 1280 g/ha, graded after ca. 3 weeks
How it was run: as §1

[7] = tested on: Alopecurus myosuroides (ALOMY); experiment: Herbicidal post-emergence action; conditions: 1280 g/ha, assessed after ca. 3 weeks
How it was run: (§2)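 Post-emergence greenhouse spray test: single-leaf plants treated with WP or EC formulations at 1280 g/ha or 320 g/ha in 600 l water/ha containing 0.5% additive. Activity is visual percent damage after roughly 3 weeks relative to untreated controls.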

Avena fatua (AVEFA) [8] = experiment: Herbicidal post-emergence action; conditions: 1280 g/ha, assessed after ca. 3 weeks
How it was run: as §2

[9] = tested on: Echinochloa crus-galli (ECHCG); experiment: Herbicidal post-emergence action; conditions: 1280 g/ha, assessed after ca. 3 weeks
How it was run: as §2

[10] = tested on: Lolium multiflorum (LOLMU); experiment: Herbicidal post-emergence action; conditions: 1280 g/ha, assessed after ca. 3 weeks
How it was run: as §2

Stellaria media (STEME) = experiment: Herbicidal post-emergence action; conditions: 1280 g/ha, assessed after ca. 3 weeks
How it was run: as §2

Veronica persica (VERPE) = experiment: Herbicidal post-emergence action; conditions: 1280 g/ha, assessed after ca. 3 weeks
How it was run: as §2

[11] = tested on: Amaranthus retroflexus (AMARE); experiment: Herbicidal post-emergence action; conditions: 1280 g/ha, assessed after ca. 3 weeks
How it was run: as §2

[12] = tested on: Polygonum convolvulus (POLCO); experiment: Herbicidal post-emergence action; conditions: 1280 g/ha, assessed after ca. 3 weeks
How it was run: as §2

Viola tricolor (VIOTR) [13] = experiment: Herbicidal post-emergence action; conditions: 1280 g/ha, assessed after ca. 3 weeks
How it was run: as §2

[14] = tested on: Matricaria inodora (MATIN); experiment: Herbicidal pre-emergence action; conditions: 1280 g/ha, graded after ca. 3 weeks
How it was run: as §1

[15] = tested on: Matricaria inodora (MATIN); experiment: Herbicidal post-emergence action; conditions: 1280 g/ha, assessed after ca. 3 weeks
How it was run: as §2

[16] = tested on: Pharbitis purpurea (PHBPU); experiment: Herbicidal post-emergence action; conditions: 1280 g/ha, assessed after ca. 3 weeks
How it was run: as §2

Viola tricolor (VIOTR) [17] = experiment: Herbicidal pre-emergence action; conditions: 1280 g/ha, graded after ca. 3 weeks
How it was run: as §1

Row | Compound | Pre-emergence activity against ALOMY [1] [%] | Pre-emergence activity against AVEFA (Avena fatua (AVEFA) [2]) [%] | Pre-emergence activity against CYPES [3] [%] | Pre-emergence activity against ECHCG [4] [%] | Pre-emergence activity against LOLMU [5] [%] | Pre-emergence activity against POLCO [6] [%] | Pre-emergence activity against SETVI (Setaria viridis (SETVI)) [%] | Post-emergence activity against ALOMY [7] [%] | Post-emergence activity against AVEFA (Avena fatua (AVEFA) [8]) [%] | Post-emergence activity against ECHCG [9] [%] | Post-emergence activity against LOLMU [10] [%] | Post-emergence activity against STEME (Stellaria media (STEME)) [%] | Post-emergence activity against VERPE (Veronica persica (VERPE)) [%] | Post-emergence activity against AMARE [11] [%] | Post-emergence activity against POLCO [12] [%] | Post-emergence activity against VIOTR (Viola tricolor (VIOTR) [13]) [%] | Pre-emergence activity against MATIN [14] [%] | Post-emergence activity against MATIN [15] [%] | Post-emergence activity against PHBPU [16] [%] | Pre-emergence activity against VIOTR (Viola tricolor (VIOTR) [17]) [%]
1 | Cn1nnnc1NC(=O)CC1CCC(=O)N1Cc1cccc(F)c1F (racemic) [Example I-004] | 90 | 100 | 100 | 80 | 90 | 80 | 80 | 90 | 100 | 100 | 90 | 80 | 80 |  |  |  |  |  |  | 
2 | CC1CC(=O)C(C(=O)CC2CCC(=O)N2Cc2cccc(F)c2F)C(=O)C1 (racemic) [Example I-180] | 80 | 90 |  | 90 |  |  |  |  | 80 | 90 |  | 90 |  | 90 | 80 | 80 |  |  |  | 
3 | CC1(C)C(=O)C(C(=O)CC2CCC(=O)N2Cc2cccc(F)c2F)C(=O)C(C)(C)C1=O (racemic) [Example I-184] |  |  |  |  |  |  |  | 80 | 80 |  | 80 | 80 | 80 | 80 |  |  | 80 | 90 | 90 | 
4 | O=C(O)CC1CCC(=O)N1Cc1cccc(F)c1F (single isomer, unassigned) [Example I-065] |  | 80 |  |  |  | 100 |  |  | 90 |  |  |  |  |  |  |  |  |  | 80 | 100
